Assay results published in publication PMC5752149 (European journal of medicinal chemistry, 2017).

Columns and labels:
EphA2 receptor [1] = molecular target: T1, EphA2 receptor (Homo sapiens, UniProt P29317); assay: EphA2 phosphorylation and internalization in MDA-MB-231 cells; format: cell-based
EphA2 receptor [2] = molecular target: T1, EphA2 receptor; assay: EphA2 phosphorylation in EphA2-overexpressing MDA-MB-231 cells; format: cell-based

T1 sequence (P29317 24-976): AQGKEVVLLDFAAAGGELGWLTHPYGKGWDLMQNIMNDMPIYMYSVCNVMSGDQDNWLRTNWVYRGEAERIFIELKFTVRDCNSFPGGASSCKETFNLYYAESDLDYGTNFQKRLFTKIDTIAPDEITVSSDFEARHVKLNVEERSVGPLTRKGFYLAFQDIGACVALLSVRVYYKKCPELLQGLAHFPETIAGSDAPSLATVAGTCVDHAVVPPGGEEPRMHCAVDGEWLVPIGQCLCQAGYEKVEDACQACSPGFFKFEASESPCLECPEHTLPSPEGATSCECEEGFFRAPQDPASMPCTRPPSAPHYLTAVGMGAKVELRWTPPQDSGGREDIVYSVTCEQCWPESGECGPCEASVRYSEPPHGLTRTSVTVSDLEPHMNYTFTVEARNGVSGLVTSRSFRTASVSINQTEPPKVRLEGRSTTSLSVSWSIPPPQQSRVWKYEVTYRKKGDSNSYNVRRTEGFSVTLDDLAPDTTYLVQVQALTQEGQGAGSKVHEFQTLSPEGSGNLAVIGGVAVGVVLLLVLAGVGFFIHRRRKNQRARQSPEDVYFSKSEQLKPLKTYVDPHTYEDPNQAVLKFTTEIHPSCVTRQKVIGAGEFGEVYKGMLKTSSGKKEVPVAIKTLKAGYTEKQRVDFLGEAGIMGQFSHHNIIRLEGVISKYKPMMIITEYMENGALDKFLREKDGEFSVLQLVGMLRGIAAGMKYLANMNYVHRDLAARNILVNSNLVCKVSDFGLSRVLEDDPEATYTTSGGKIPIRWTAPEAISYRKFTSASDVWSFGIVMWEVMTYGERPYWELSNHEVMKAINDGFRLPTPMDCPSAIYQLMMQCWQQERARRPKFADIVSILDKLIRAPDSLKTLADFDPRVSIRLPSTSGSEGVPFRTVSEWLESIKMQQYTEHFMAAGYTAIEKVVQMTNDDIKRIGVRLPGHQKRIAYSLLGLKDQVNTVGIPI

Structure (SMILES)	EphA2 phosphorylation and internalization in MDA-MB-231 cells (positive control, (EphA2 receptor [1])	EphA2 phosphorylation in EphA2-overexpressing MDA-MB-231 cells; receptor interna (EphA2 receptor [2])
COc1cc2nc(N3CCN(C(=O)C4COc5ccccc5O4)CC3)nc(N)c2cc1OC (centres unmarked) [Doxazosin, 2-[4-(2,3-Dihydro-1,4-benzodioxine-2-carbonyl)piperazin-1-yl]-6,7-dimethoxyquinazolin-4-amine]	~ 50 μM	
COc1cc2nc(N3CCN(C(=O)CCCCCCCCCCC(=O)N4CCN(c5nc(N)c6cc(OC)c(OC)cc6n5)CC4)CC3)nc(N)c2cc1OC [compound 27, 1,12-bis(4-(4-amino-6,7-dimethoxyquinazolin-2-yl)piperazin-1-yl)dodecane-1,12-dione]		~ 0.4 μM
